Source: patent US5143906A, “Kedarcidin antitumor chromophore and pharmaceutical composition containing same” (Bristol-Myers Squibb Company, priority 1991, dated 1992)
In brackets after ≈: the same amount, converted by molar mass.

Assays:
[1] = system: ip implanted P388 leukemia; assay: Antitumor activity against ip implanted P388 leukemia; format: in vivo, murine (CDF1 mice); design: Med. surv. time: unit not given here
Text: (§1) The P388 tumor was maintained in ascitic form in DBA/2 mice. Experimental tumor models used CDF^1 mice implanted via the intraperitoneal or intravenous route with 1×10^6 leukemia cells on day 0 and dosed with drugs according to the indicated route and schedule. Mice were weighed on day 0 and on day 5 or 6. Weight loss of 20% or greater was an indicator of drug toxicity. Each dose group consisted of 6 mice with 10 mice in the untreated control group. The dosing schedule was Q1DX1;1. Death checks were performed daily and the median life span of each group determined. […] Experiments were terminated on or about day 30.

[2] = system: iv implanted P388 leukemia; assay: Antitumor activity against iv implanted P388 leukemia; format: in vivo, murine (CDF1 mice); design: Med. surv. time: unit not given here
Text: as §1

[3] = system: human ovarian carcinoma A2780 drug sensitive cell line; assay: In vitro cytotoxicity assay (XTT), A2780; format: cell-based; conditions: Homo sapiens; A2780, 72 h; VP-16 values: mean of triplicate determinations from last 6 experiments; read-out: IC50
Experimental: (§2) The A2780/DDP cell line is reported to be resistant through enhanced DNA repair mechanisms and elevated GSH/GST levels. Cells were cultured in McCoy's media and 10% fetal bovine serum. When in log phase growth, 4×10^3 cells/well were plated into 96 well microtiter plates and incubated at 37° C. in […] /5% CO2 for 24 hours to allow cell attachment. Compounds were added to the top row of wells, serially diluted (4 fold dilutions) and incubated for an additional 72 hours. The number of viable cells in each well was then quantitated as previously described^2 by adding 0.05 mg/ml final concentration tetrazolium stain (XTT) in the presence of 0.005 mM final concentration phenazine methosulfate. After incubation at room temperature for 3 hours to allow color development, optical density values were measured using a Dynatech MR600 plate reader at […]. IC50 values (drug concentration inhibiting cell growth by 50%) were calculated using linear regression analysis of the optical density readings. Triplicate determinations on separate 96 well plates were done for each drug on each cell line tested.

[4] = system: HCT116/VP35 drug resistant cell line; assay: In vitro cytotoxicity assay (XTT), HCT116/VP35; format: cell-based, human; conditions: Homo sapiens, HCT-116; HCT116/VP35, 72 h; VP-16 values: mean of triplicate determinations from last 6 experiments; read-out: IC50
Experimental: as §2

[5] = system: A2780/DDP drug resistant cell line; assay: In vitro cytotoxicity assay (XTT), A2780/DDP; format: cell-based, human
Experimental: as §2

[6] = system: HCT116/VM46 drug resistant cell line; assay: In vitro cytotoxicity assay (XTT), HCT116/VM46; format: cell-based, human; conditions: Homo sapiens, HCT-116/VM46; HCT116/VM46, 72 h; VP-16 values: mean of triplicate determinations from last 6 experiments; read-out: IC50
Experimental: as §2

[7] = system: human colon adenocarcinoma HCT116 drug sensitive line; assay: In vitro cytotoxicity assay (XTT), HCT116; format: cell-based; conditions: Homo sapiens, HCT-116; HCT116, 72 h; VP-16 values: mean of triplicate determinations from last 6 experiments; read-out: IC50
Experimental: as §2

## CO[C@@]12[C@H](COC(N)=O)C3=C(C(=O)C(C)=C(N)C3=O)N1C[C@@H]1N[C@@H]12 [Mitomycin C, reference compound]
[1]; Exp. 8305, 3.2 mg/kg/dose
  % T/C: 200%
  Av. wgt. change: -0.5 g
  Med. surv. time: 20.0
  No. of mice alive on d 5: 6/6
[1]; Exp. 8305, 4.8 mg/kg/dose
  % T/C: 230%
  Av. wgt. change: -0.7 g
  Med. surv. time: 23.0
  No. of mice alive on d 5: 6/6
[1]; Exp. 8328, 3.2 mg/kg/dose
  % T/C: 190%
  Av. wgt. change: -0.8 g
  Med. surv. time: 19.0
  No. of mice alive on d 5: 6/6
[1]; Exp. 8328, 4.8 mg/kg/dose
  % T/C: 200%
  Av. wgt. change: -0.5 g
  Med. surv. time: 20.0
  No. of mice alive on d 5: 6/6
[2]; Exp. 8305, 0.8 mg/kg/dose
  % T/C: 114%
  Av. wgt. change: 0.4 g
  Med. surv. time: 8.0
  No. of mice alive on d 5: 6/6
[2]; Exp. 8305, 1.6 mg/kg/dose
  % T/C: 143%
  Av. wgt. change: -0.3 g
  Med. surv. time: 10.0
  No. of mice alive on d 5: 6/6
[2]; Exp. 8305, 3.2 mg/kg/dose
  % T/C: 157%
  Av. wgt. change: 0.5 g
  Med. surv. time: 11.0
  No. of mice alive on d 5: 6/6
[2]; Exp. 8305, 4.8 mg/kg/dose
  % T/C: 193%
  Av. wgt. change: -0.8 g
  Med. surv. time: 13.5
  No. of mice alive on d 5: 6/6
[2]; Exp. 8328, 1.6 mg/kg/dose
  % T/C: 129%
  Av. wgt. change: -0.1 g
  Med. surv. time: 9.0
  No. of mice alive on d 5: 6/6
[2]; Exp. 8328, 3.2 mg/kg/dose
  % T/C: 143%
  Av. wgt. change: -0.7 g
  Med. surv. time: 10.0
  No. of mice alive on d 5: 6/6

## COc1cc([C@@H]2c3cc4c(cc3[C@@H](O[C@@H]3O[C@@H]5CO[C@@H](C)O[C@H]5[C@H](O)[C@H]3O)[C@H]3COC(=O)[C@H]23)OCO4)cc(OC)c1O [VP-16, etoposide, reference compound]
[3]
  IC50: 0.057 mg/L (≈ 0.0968 µM)
[4]
  IC50: 8.76 mg/L (≈ 14.9 µM)
[5]; A2780/DDP vs A2780, 4320 min
  fold less potent on the resistant cell line compared to the sensitive cell line: about 6.6 fold
[5]; Homo sapiens, A2780/DDP, 72 h, VP-16 values: mean of triplicate determinations from last 6 experiments, read-out: IC50
  IC50: 0.379 mg/L (≈ 0.644 µM)
[6]
  IC50: 3.25 mg/L (≈ 5.53 µM)
[7]
  IC50: 0.69 mg/L (≈ 1.17 µM)
